The nature of data set [1]: Evaluation of light resistance of ink jet print (xenon fade meter). Format: physicochemical. Conditions: amount of energy required for OD value (about 1.0) to decrease to 70%; ink with 6.0% by weight dye, pH 9.0-9.5 (ammonia), printed on PM Photo Paper; xenon 36 W/m^2 (300 to 400 nm), 24° C., 55% humidity. An excerpt: Preparation of Samples for Test:
An ink, the pH of which was adjusted between 9.0 and 9.5 with ammonia, prepared using the composition shown above was set into an ink jet printer (EM-900C manufactured by Seiko Epson Corp.). A piece of paper specially designed for ink jet (PM Photo Paper (Model: KA420PSK) manufactured by Seiko Epson Corp.) was printed with the ink, and it was used as a sample to be tested.
Light irradiation: The sample to be tested was set to a holder. Light irradiation with a xenon fade meter was carried out under the following condition:
Method for evaluation: The sample is taken out after each irradiation of an energy of 3000 kJ/m^2, and a part with an optical density (OD value) of about 1.0 is measured with a Macbeth density meter. The total amount of light irradiated at the time when the OD value has become 70% the original value is calculated.
Criterion for evaluation: The amount of energy required for the OD value to decrease to 70%.

Data set [2] is described as follows: Mutagenicity test (Ames test). A general note: In the Ames test, an excess of revertant colonies over the control signals mutagenicity.
The nature of another data set: Solubility in water. Format: physicochemical. Conditions: under an ammoniacal alkaline condition.

For the molecule `Cc1cc(-c2ccc(N=Nc3c(S(=O)(=O)O)cc4cc(S(=O)(=O)O)c(N=Nc5ccccc5)c(O)c4c3N)c(C)c2)ccc1N=Nc1ccc(N)cc1N` [C. I. Direct Black 154, reference compound], the “Evaluation of light resistance” value in data set [1] is listed as “×”.

On to `Nc1cc(O)ccc1N=Nc1ccc(Nc2ccc(N=Nc3c(S(=O)(=O)O)cc4cc(S(=O)(=O)O)c(N=Nc5ccccc5)c(O)c4c3N)cc2S(=O)(=O)O)cc1` [C. I. Direct Black 168, reference compound], for which the “Evaluation of light resistance” value in data set [1] was “Δ (Not less than 10,000 kJ/m^2 and less than 40,000 kJ/m^2)”.

With `Nc1c(N=Nc2ccc3cc(S(=O)(=O)O)c(N=Nc4ccccc4C(=O)O)c(O)c3c2)cc(S(=O)(=O)O)c2cc(S(=O)(=O)O)c(N=Nc3ccccc3C(=O)O)c(O)c12` [Trisazo compound (1)], in data set [2], the “mutagenicity test (Ames test), ratio” value was 1.27 times and the “result of mutagenicity test (Ames test)” value is reported as “negative”. The molecule further yielded a solubility in water in the data set “Solubility in water” of 14%. In data set [1], the “Evaluation of light resistance” value is “⊚ (Not less than 70,000 kJ/m^2)”.

Turning to `Nc1c(N=Nc2ccc3c(O)c(N=Nc4ccccc4C(=O)O)c(S(=O)(=O)O)cc3c2)cc(S(=O)(=O)O)c2cc(S(=O)(=O)O)c(N=Nc3ccccc3C(=O)O)c(O)c12` [Trisazo compound (2)], in data set [1], the “Evaluation of light resistance” value is reported as “⊚ (Not less than 70,000 kJ/m^2)”.

Turning to `CCOc1ccc(N=Nc2c(S(=O)(=O)O)cc3ccc(N=Nc4cc(S(=O)(=O)O)c5cc(S(=O)(=O)O)c(N=Nc6ccccc6C(=O)O)c(O)c5c4N)cc3c2O)cc1` [Trisazo compound (5)], the “Evaluation of light resistance” value in data set [1] is listed as “⊚ (Not less than 70,000 kJ/m^2)”.

As to `COc1ccc(N=Nc2c(S(=O)(=O)O)cc3c(S(=O)(=O)O)cc(N=Nc4ccc5cc(S(=O)(=O)O)c(N=Nc6cc(Cl)ccc6C(=O)O)c(O)c5c4)c(N)c3c2O)c(S(=O)(=O)O)c1` [Trisazo compound (6)], the “Evaluation of light resistance” value in data set [1] is “◯”.

Take `Nc1c(N=Nc2ccc3cc(S(=O)(=O)O)c(N=Nc4ccccc4C(=O)O)c(O)c3c2)cc(S(=O)(=O)O)c2cc(S(=O)(=O)O)c(N=Nc3cc(C(=O)O)ccc3C(=O)O)c(O)c12` [Trisazo compound (8)]: in data set [1], the “Evaluation of light resistance” value is on record as “⊚ (Not less than 70,000 kJ/m^2)”.

As to `Nc1c(N=Nc2ccc3cc(S(=O)(=O)O)c(N=Nc4cccc(C(=O)O)c4)c(O)c3c2)cc(S(=O)(=O)O)c2cc(S(=O)(=O)O)c(N=Nc3ccccc3C(=O)O)c(O)c12` [Trisazo compound (11)], the “Evaluation of light resistance” value in data set [1] is reported as “◯”.

As to `Nc1c(N=Nc2ccccc2C(=O)O)cc(S(=O)(=O)O)c2cc(S(=O)(=O)O)c(/N=N\c3ccc4cc(S(=O)(=O)O)c(N=Nc5ccccc5C(=O)O)c(O)c4c3)c(O)c12` [Trisazo compound (14)], in data set [1], the “Evaluation of light resistance” value is on record as “⊚ (Not less than 70,000 kJ/m^2)”.
